Measurements taken from paper PMC2248166, “Quantitative peptide binding motifs for 19 human and mouse MHC class I molecules derived using positional scanning combinatorial peptide libraries” (Immunome Research, 2008).

How the values were obtained:
HLA A*3001 = HLA A*3001 (Homo sapiens, UniProt P04439, D140H/D185E/E176W/F33S/G80R/H175R/K168Q/R138E/R41S); experiment: biochemical; assay type: binding
HLA A*3201 = HLA A*3201 (Homo sapiens, UniProt P04439, A270S/D101S/D185E/E176V/E277Q/F133L/G103R/G107R/G231S/H175R/I121M/I218V/I322F/K168Q/L105A/L300P/L318F/M331R/P208A/P217A/Q94H/R106L/R138Q/S129P/T104I/T323A/T345S/V100E/V321M/V358M); experiment: biochemical; assay type: binding
HLA A*6802 = HLA A*6802 (Homo sapiens, UniProt P04439, A269V/D140Y/D185E/E176V/E277Q/E87N/F33Y/G231S/I121R/I166T/I218V/L180W/L300P/L318F/N151K/P208A/P217A/Q86R/R138H/R169H/S129P/T345S/V36M); assay type: binding
HLA B*0702 = HLA B*0702 (Homo sapiens, UniProt P01889); assay type: binding; settings: positional scanning combinatorial 9-mer library; normalized to 1.0 for the best residue at each position
HLA B*0801 = HLA B*0801 (Homo sapiens, UniProt P01889, A93T/A95T/D138N/E176V/E187T/K202T/Q94N/R180D/S35A/V36M/Y33D/Y91F); experiment: biochemical; assay type: binding
HLA B*1501 = HLA B*1501 (Homo sapiens, UniProt P01889, A329T/A93T/A95T/C349S/D201E/D98Y/E187L/E204Q/E69M/E70A/K202T/N87E/Q94N/R155S/R180W/S121R/S35A/S48A/V306I/V36M/Y140S/Y91S); experiment: biochemical; assay type: binding
HLA B*1503 = HLA B*1503 (Homo sapiens, UniProt P01889, A329T/A93T/A95T/C349S/D201E/D98Y/E187L/E204Q/K202T/N87E/Q94N/R155S/R180L/S121R/S35A/V306I/V36M/Y140S/Y91S); experiment: biochemical; assay type: binding
HLA B*2705 = HLA B*2705 (Homo sapiens, UniProt P01889, D138H/D201E/E176V/E204Q/G107R/H137Y/K202T/N104T/N87E/Q56L/Q94K/R106L/R155S/R180L/S101D/S121N/S48T/Y140D/Y33H/Y91C); assay type: binding; settings: positional scanning combinatorial 9-mer library; normalized to 1.0 for the best residue at each position
HLA B*3501 = HLA B*3501 (Homo sapiens, UniProt P01889, A329T/A93T/A95T/C349S/D201E/D98Y/E176V/E187L/E204Q/E69T/I218V/K202T/L119I/Q94N/R155S/R180L/S121R/S35A/S48A/T118I/V127L/V306I/V36M/Y140S/Y91F); assay type: binding
HLA B*5101 = HLA B*5101 (Homo sapiens, UniProt P01889, A329T/A93T/A95T/C349S/D138N/D201E/D98Y/E187L/E204Q/E69T/G107R/I218V/K202T/L105A/L119W/N104I/Q94N/R106L/R155S/R180L/S101N/S121T/S35A/S48A/V306I/V36M/Y195H/Y91F); assay type: binding
HLA B*5301 = HLA B*5301 (Homo sapiens, UniProt P01889, A329T/A93T/A95T/C349S/D201E/D98Y/E176V/E187L/E204Q/E69T/G107R/I218V/K202T/L105A/L119I/N104I/Q94N/R106L/R155S/R180L/S101N/S121R/S35A/S48A/T118I/V127L/V306I/V36M/Y140S/Y91F); assay type: binding
HLA B*5401 = HLA B*5401 (Homo sapiens, UniProt P01889, A329T/C349S/D138N/D201E/E176V/E187T/E204Q/E69G/I76V/K202T/L119W/R155S/R180L/S121T/S35A/S48A/V127L/V306I/V36M/Y140L); assay type: binding
HLA B*5801 = HLA B*5801 (Homo sapiens, UniProt P01889, A329T/C349S/D201E/D98Y/E176V/E187L/E204Q/E69T/G107R/I218V/I90N/K202T/L105A/L119I/N104I/N87E/Q89R/Q94S/R106L/R155S/R180L/R86G/S101N/S121R/S35A/S48A/T118I/V127L/V306I/V36M/Y140S/Y91M); assay type: binding
HLA B*5802 = HLA B*5802 (Homo sapiens, UniProt P01889, A329T/C349S/D201E/D98Y/E176V/E187L/E204Q/E69T/G107R/I218V/I90N/K202T/L105A/N104I/N87E/Q89R/Q94S/R106L/R155S/R180L/R86G/S101N/S121W/S35A/S48A/V127L/V306I/V36M/Y140S/Y91M); assay type: binding
H-2 D^b = H-2 D^b (Mus musculus, UniProt P01899); assay type: binding
H-2 D^b, sequence (P01887 21-119): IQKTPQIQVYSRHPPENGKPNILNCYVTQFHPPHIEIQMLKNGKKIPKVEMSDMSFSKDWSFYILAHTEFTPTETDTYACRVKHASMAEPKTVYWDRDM
H-2 D^b, sequence (P01899 25-362): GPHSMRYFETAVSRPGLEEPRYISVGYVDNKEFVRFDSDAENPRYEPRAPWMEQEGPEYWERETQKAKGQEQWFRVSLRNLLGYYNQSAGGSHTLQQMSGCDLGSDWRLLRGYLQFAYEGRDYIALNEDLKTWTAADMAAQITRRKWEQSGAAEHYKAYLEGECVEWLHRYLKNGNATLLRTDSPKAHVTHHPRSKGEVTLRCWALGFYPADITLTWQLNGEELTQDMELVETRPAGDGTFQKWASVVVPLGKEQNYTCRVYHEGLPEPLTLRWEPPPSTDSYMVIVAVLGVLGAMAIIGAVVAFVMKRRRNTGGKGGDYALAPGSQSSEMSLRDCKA

H-2 D^d = H-2 D^d (Mus musculus, UniProt P01900); assay type: binding
H-2 D^d, sequence (P01900 whole entry, looked up): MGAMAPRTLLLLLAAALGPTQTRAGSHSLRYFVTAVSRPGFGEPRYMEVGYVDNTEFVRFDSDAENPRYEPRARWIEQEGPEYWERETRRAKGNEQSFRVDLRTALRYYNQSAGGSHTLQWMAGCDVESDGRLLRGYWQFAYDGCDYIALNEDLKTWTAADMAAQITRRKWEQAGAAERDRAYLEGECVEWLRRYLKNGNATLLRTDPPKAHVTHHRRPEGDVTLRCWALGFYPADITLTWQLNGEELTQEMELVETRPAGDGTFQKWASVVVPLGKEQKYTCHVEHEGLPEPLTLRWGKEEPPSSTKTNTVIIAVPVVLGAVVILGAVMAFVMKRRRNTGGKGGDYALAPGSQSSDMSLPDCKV

H-2 K^k = H-2 K^k (Mus musculus, UniProt P04223); assay type: binding
H-2 K^k, sequence (P01887 21-119): as the sequence (P01887 21-119) above
H-2 K^k, sequence (P04223 22-369): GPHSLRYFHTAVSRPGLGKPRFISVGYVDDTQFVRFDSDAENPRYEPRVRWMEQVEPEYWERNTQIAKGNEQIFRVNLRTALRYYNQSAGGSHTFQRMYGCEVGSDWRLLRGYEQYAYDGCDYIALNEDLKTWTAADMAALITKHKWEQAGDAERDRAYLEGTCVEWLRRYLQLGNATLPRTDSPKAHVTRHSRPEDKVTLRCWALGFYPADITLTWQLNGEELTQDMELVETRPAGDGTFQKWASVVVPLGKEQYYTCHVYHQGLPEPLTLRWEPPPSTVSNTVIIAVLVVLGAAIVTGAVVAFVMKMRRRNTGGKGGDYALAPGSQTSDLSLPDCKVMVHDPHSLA

HLA A*0201 = HLA A*0201 (Homo sapiens, UniProt P04439, D140Y/D185E/D98H/E176V/E277Q/G131W/G231S/I119V/I121R/I166T/I218V/L300P/L318F/N151K/N90K/P208A/P217A/Q86G/Q94H/R138H/R169H/T345S); settings: positional scanning combinatorial 9-mer library; normalized to 1.0 for the best residue at each position

Sequence	Normalized average relative binding affinity (ARB), HLA A*3001 (HLA A*3001)	Normalized average relative binding affinity (ARB), HLA A*3201 (HLA A*3201)	Normalized average relative binding affinity (ARB), HLA A*6802 (HLA A*6802)	Normalized average relative binding affinity (ARB), HLA B*0702 (HLA B*0702)	Normalized average relative binding affinity (ARB), HLA B*0801 (HLA B*0801)	Normalized average relative binding affinity (ARB), HLA B*1501 (HLA B*1501)	Normalized average relative binding affinity (ARB), HLA B*1503 (HLA B*1503)	Normalized average relative binding affinity (ARB), HLA B*2705 (HLA B*2705)	Normalized average relative binding affinity (ARB), HLA B*3501 (HLA B*3501)	Normalized average relative binding affinity (ARB), HLA B*5101 (HLA B*5101)	Normalized average relative binding affinity (ARB), HLA B*5301 (HLA B*5301)	Normalized average relative binding affinity (ARB), HLA B*5401 (HLA B*5401)	Normalized average relative binding affinity (ARB), HLA B*5801 (HLA B*5801)	Normalized average relative binding affinity (ARB), HLA B*5802 (HLA B*5802)	Normalized average relative binding affinity (ARB), H-2 Db (H-2 D^b)	Normalized average relative binding affinity (ARB), H-2 Dd (H-2 D^d)	Normalized average relative binding affinity (ARB), H-2 Kk (H-2 K^k)	Normalized average relative binding affinity (ARB), HLA A*0201 (HLA A*0201)
XCXXXXXXX [3064.0022]	0.15	0.028	0.0076	0.0028	0.028	0.027	0.0028	0.0016	0.067	0.079	0.019	0.0051	0.013	0.051	0.22	0.013	0.010	0.0016
XDXXXXXXX [3064.0023]	0.012	0.025	0.0075	0.0029	0.014	0.0094	0.0054	0.0016	0.018	0.022	0.0088	0.0009	0.0033	0.030	0.036	0.013	0.13	0.0016
XEXXXXXXX [3064.0024]	0.025	0.031	0.0068	0.0028	0.038	0.20	0.11	0.0016	0.021	0.041	0.021	0.0026	0.0066	0.066	0.036	0.014	1.0	0.030
XFXXXXXXX [3064.0025]	0.30	0.012	0.017	0.0028	0.14	0.099	0.0062	0.0016	0.012	0.086	0.018	0.00055	0.097	0.030	0.086	0.074	0.016	0.0041
XGXXXXXXX [3064.0026]	0.22	0.025	0.014	0.0028	0.17	0.095	0.042	0.0016	0.063	0.16	0.022	0.011	0.14	0.077	0.42	1.0	0.0063	0.0090
XHXXXXXXX [3064.0027]	0.082	0.047	0.0031	0.0028	0.028	0.015	0.16	0.0065	0.0078	0.029	0.0036	0.0014	0.061	0.030	0.099	0.061	0.0052	0.0016
